Test results: publication PMC9871744 (Cellular and Molecular Gastroenterology and Hepatology, 2022)
Where “and” joins values, the source holds several entries; their conditions need not be identical. Identical values can stand only once.

Assays:
Cytotoxicity evaluation = details: human, Cytotoxicity (%); for cytotoxicity at 0.05 mmol/L: 0.050 mmol/L; for cytotoxicity at 0.1 mmol/L: 0.100 mmol/L
[1] = system: human androgen receptor (hAR); assay: Androgen receptor transcriptional activation and inhibition assays; type: cell-based
human fungiform TBC = assay: Ca2+ signaling in human fungiform TBC; type: cell-based
C57BL/6J male mice = assay: Diet-induced obesity; type: in vivo
[2] = system: chorda tympani (CT) nerve; assay: Chorda tympani; type: in vivo; details: lingual application in mice; 1, 2, and 4 mmol/L; normalized to NH4Cl 100 mmol/L
HepG2 cells = assay: Micronucleus analysis
MDA-kb2 cells = assay: Cytotoxicity in the androgen receptor reporter cells; type: cell-based
mouse fungiform TBC = assay: Ca2+ signaling in mouse fungiform TBC; type: cell-based; details: LA at 20 μmol/L
Hela-9903 cells = assay: Cytotoxicity in the estrogen receptor reporter cells; type: cell-based
[3] = short treatment in absence of S9 mix
[4] = short treatment in the presence of S9 mix
[5] = extended treatment in the absence of S9 mix, 0.0065 mmol/L
[6] = extended treatment in the absence of S9 mix, 0.010 mmol/L
[7] = extended treatment in the absence of S9 mix, 0.020 mmol/L
[8] = extended treatment in the absence of S9 mix, 2.5 mmol/L (Table 14)
[9] = extended treatment in the absence of S9 mix, 5 mmol/L (Table 14)
[10] = extended treatment in the absence of S9 mix, 10 mmol/L (Table 14)
[11] = short treatment in the absence of S9 mix, 0.025 mmol/L
[12] = short treatment in the absence of S9 mix, 0.05 mmol/L
[13] = short treatment in the absence of S9 mix, 0.10 mmol/L
[14] = short treatment in the presence of S9 mix, 0.025 mmol/L
[15] = short treatment in the presence of S9 mix, 0.05 mmol/L
[16] = short treatment in the presence of S9 mix, 0.10 mmol/L

For `CCCCC/C=C\C/C=C\CCCCCCCCP(=O)(OCC)OCC` [NKS-3, diethyl (9Z,12Z)-octadeca-9,12-dien-1-ylphosphonate], the cytotoxicity at 0.03 mmol/L (Cytotoxicity evaluation; extended treatment in the absence of S9 mix, 0.030 mmol/L) was 72.8%, the cytotoxicity at 0.04 mmol/L (Cytotoxicity evaluation; extended treatment in the absence of S9 mix, 0.040 mmol/L) was 73.7% and the cytotoxicity at 0.025 mmol/L (Cytotoxicity evaluation; [3]) was -9.99%. It also gave a cytotoxicity at 0.05 mmol/L (Cytotoxicity evaluation; [3]) of 14.7%, a cytotoxicity at 0.1 mmol/L (Cytotoxicity evaluation; [3]) of 56.2% and a cytotoxicity at 0.25 mmol/L (Cytotoxicity evaluation; [3]) of 65.5%. The cytotoxicity at 0.025 mmol/L (Cytotoxicity evaluation; [4]) was -3.6%, the cytotoxicity at 0.05 mmol/L (Cytotoxicity evaluation; [4]) was -5.03% and the cytotoxicity at 0.1 mmol/L (Cytotoxicity evaluation; [4]) was 19.4%. For the same compound, the cytotoxicity at 0.25 mmol/L (Cytotoxicity evaluation; [4]) was 73%, the “androgenic or antiandrogenic property (conclusion)” value [1] was “did not possess androgenic or antiandrogenic property” and the “Ca2+ signaling compared with a dietary long-chain fatty acid” value (human fungiform TBC) was “higher”. The “increase in intracellular free Ca2+ concentrations, [Ca2+]i” value (human fungiform TBC; NKS-3 50 μmol/L, NKS-5 25 μmol/L) was “induced a rapid increase”, the “CD36 (reduced) and GPR120 (high) protein expression in TBC, Western blots” value (C57BL/6J male mice; HFD animals, FTA intake 16 weeks) was “reversed this trend” and the locomotor activity (C57BL/6J male mice; HFD mice) was “increased”. For the same compound, the “LA-induced decreases in [Ca2+]i in TBC from obese mice” value (C57BL/6J male mice; HFD mice given FTA 16 weeks) was “reversed”, the “daily energy expenditure (indirect calorimetry)” value (C57BL/6J male mice; HFD-fed mice) was “significantly increased” and the “leptin mRNA expression in adipose tissues” value (C57BL/6J male mice; HFD-fed mice) was “failed to significantly decrease”. For the same compound, the “fecal microbiota: bacterial family increased” value (C57BL/6J male mice; HFD-fed mice, 16S rRNA sequencing, week 26) was “Marinifilaceae”, the “adipose tissue mRNA encoding leptin, CD36, TNF-α, and IL6” value (C57BL/6J male mice; HFD-fed mice, epididymal adipose tissue) was “down-regulated” and the “crown-like structures of adipocytes” value (C57BL/6J male mice; obese animals, histology) was “decreased”. For the same compound, the “release of GLP-1, CCK-1, and PYY into blood circulation” value (C57BL/6J male mice; obese mice, end of week 26) was “induced the release”, the “CT nerve responses compared with dietary LCFAs (LA, OA)” value [2] was “higher” and the “MNBN cells frequency (%)” value (HepG2 cells; [5]) was 0.8% and 0.6%. For the same compound, the “Mean frequency (%) of MNBN cells” value (HepG2 cells; [5]) was 0.70%, the “MNBN cells frequency (%)” value (HepG2 cells; [6]) was 0.9% and 0.8% and the “Mean frequency (%) of MNBN cells” value (HepG2 cells; [6]) was 0.85%. The “MNBN cells frequency (%)” value (HepG2 cells; [7]) was 0.9% and 0.6%, the “Mean frequency (%) of MNBN cells” value (HepG2 cells; [7]) was 0.75% and the “MNBN cells frequency (%)” value (HepG2 cells; [8]) was 0.9% and 0.7%. For the same compound, the “Mean frequency (%) of MNBN cells” value (HepG2 cells; [8]) was 0.80%, the “MNBN cells frequency (%)” value (HepG2 cells; [9]) was 0.9% and 0.8% and the “Mean frequency (%) of MNBN cells” value (HepG2 cells; [9]) was 0.85%. The “MNBN cells frequency (%)” value (HepG2 cells; [10]) was 1.0% and 0.9%, the “Mean frequency (%) of MNBN cells” value (HepG2 cells; [10]) was 0.95% and the “MNBN cells frequency (%)” value (HepG2 cells; [11]) was 0.6% and 0.5%. The “Mean frequency (%) of MNBN cells” value (HepG2 cells; [11]) was 0.55%, the “MNBN cells frequency (%)” value (HepG2 cells; [12]) was 0.7% and the “Mean frequency (%) of MNBN cells” value (HepG2 cells; [12]) was 0.70%. For the same compound, the “MNBN cells frequency (%)” value (HepG2 cells; [13]) was 0.7% and 0.6%, the “Mean frequency (%) of MNBN cells” value (HepG2 cells; [13]) was 0.65% and the “MNBN cells frequency (%)” value (HepG2 cells; [14]) was 0.7%. For the same compound, the “Mean frequency (%) of MNBN cells” value (HepG2 cells; [14]) was 0.70%, the “MNBN cells frequency (%)” value (HepG2 cells; [15]) was 0.6% and 0.8% and the “Mean frequency (%) of MNBN cells” value (HepG2 cells; [15]) was 0.70%. The “MNBN cells frequency (%)” value (HepG2 cells; [16]) was 0.6% and 0.4%, the “Mean frequency (%) of MNBN cells” value (HepG2 cells; [16]) was 0.50% and the cytotoxic concentrations (MDA-kb2 cells; MDA-kb2 cells) was ≥ 10 µmol/L. The highest non-cytotoxic concentration (MDA-kb2 cells; androgen receptor assays) was 5 µmol/L, the “Ca2+ signaling compared with a dietary long-chain fatty acid” value (mouse fungiform TBC) was “higher” and the cytotoxic concentrations (Hela-9903 cells; Hela-9903 cells) was ≥ 10 µmol/L. For the same compound, the highest non-cytotoxic concentration (Hela-9903 cells; estrogen receptor assays) was 5 µmol/L.
